Numbered stars: 1 amine (or outer) side, 2 acyl side, 3 side chain; on linkers, the order of the positions; unused ones are H or OH. Bridge positions count the residues as written; N and C are the ends. Square brackets hold non-standard residues; d marks the D form. Peptide text beside a SMILES is read from it. I, II: the chains in the order shown. BMH = O=C1CC([*:1])C(=O)N1CCCCCCN1C(=O)CC([*:2])C1=O; Oic = O=C(O)[C@@H]1C[C@@H]2CCCC[C@@H]2N1; Hyp = O=C(O)[C@@H]1C[C@@H](O)CN1; dTic = O=C(O)[C@H]1Cc2ccccc2CN1
Experiments:
[1] = biological target: T1, BK2 -receptor (Rattus norvegicus, UniProt P25023); experiment: rat uterus (RU) in vitro, antagonism of BK
T1 construct: guinea-pig ileum (GPI), rat uterus (RU) and rabbit jugular vein (RJV); from tissue; host or cells: rat uterus
T1 sequence (P25023 1-396): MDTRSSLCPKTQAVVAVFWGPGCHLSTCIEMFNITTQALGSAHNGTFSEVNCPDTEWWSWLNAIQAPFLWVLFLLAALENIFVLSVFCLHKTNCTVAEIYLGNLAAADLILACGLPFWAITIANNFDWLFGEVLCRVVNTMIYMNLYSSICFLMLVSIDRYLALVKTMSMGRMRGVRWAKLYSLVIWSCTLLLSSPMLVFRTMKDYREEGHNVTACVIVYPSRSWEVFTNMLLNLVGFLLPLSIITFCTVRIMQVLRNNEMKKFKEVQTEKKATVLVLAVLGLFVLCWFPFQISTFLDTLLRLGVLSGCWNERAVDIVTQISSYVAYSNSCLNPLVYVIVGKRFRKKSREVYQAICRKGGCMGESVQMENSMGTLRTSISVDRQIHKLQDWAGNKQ
Method: Thus, in vitro studies were performed on standard assay systems, namely, guinea-pig ileum (GPI), rat uterus (RU) and rabbit jugular vein (RJV). […] The potency of each compound was assessed as a pA2 value according to the method of Arunlakshana & Schild, Br. J. Pharmacol. Chemother., 14:48-58 (1959). The pA2 can be defined as the negative logarithm of the molar concentration of the antagonist in the presence of which the potency of the agonist is reduced two-fold, i.e., twice the amount of agonist is required to produce a given response in the presence of, than in the absence of, the antagonist. A high potency of antagonism is indicated by a high pA2 value. i.e., a low concentration of antagonist is effective.
The percentage recovery (% Rec) was also determined for compounds with respect to each assay.
With respect to duration of activity, it is noted that after exposure to the highest concentration of antagonist, each tissue was washed extensively and then assessed for recovery from the antagonist effect.
Potency in the rat uterus assay was assessed as described above and pA2 values determined.

[2] = biological target: T2, BK2 receptor (Oryctolagus cuniculus, UniProt Q28642); experiment: blood pressure response to BK2 agonist in LPS-pretreated rabbits; type: in vivo, rabbit; set-up: key to observed antagonist activity BK2, 1 / observed antagonist activity BK2, 3 / observed antagonist activity BK2, 10: +: complete blockade of the blood pressure response to the appropriate agonist; ±: partial blockade; -: no observable effect at the dose indicated; conditions: for observed antagonist activity BK2, 1: 1 μg kg^-1 min^-1; for observed antagonist activity BK2, 1 / observed antagonist activity BK2, 3 / observed antagonist activity BK2, 10: rabbits given LPS (10 μg) 20 hours before; for observed antagonist activity BK2, 3: 3 μg kg^-1 min^-1; for observed antagonist activity BK2, 10: 10 μg kg^-1 min^-1
T2 construct: from tissue; host or cells: whole animal (rabbit, LPS-pretreated), blood pressure response
T2 sequence (Q28642 1-367): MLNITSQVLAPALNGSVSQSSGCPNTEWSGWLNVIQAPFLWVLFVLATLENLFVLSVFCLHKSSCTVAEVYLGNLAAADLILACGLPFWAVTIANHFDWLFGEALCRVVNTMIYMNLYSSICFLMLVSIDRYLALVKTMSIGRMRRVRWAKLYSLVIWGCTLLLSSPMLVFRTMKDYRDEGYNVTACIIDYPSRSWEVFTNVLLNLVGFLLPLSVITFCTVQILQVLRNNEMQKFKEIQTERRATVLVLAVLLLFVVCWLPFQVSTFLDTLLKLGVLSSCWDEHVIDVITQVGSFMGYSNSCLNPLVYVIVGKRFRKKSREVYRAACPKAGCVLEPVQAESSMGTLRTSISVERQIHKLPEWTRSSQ
Excerpt: (§1) That heterodimeric constructs block the activities attributable to two different receptor populations simultaneously when administered to an intact animal has been known using a standard assay of BK2 and BK1 receptor activity (see, deBlois, Bouthillier, and Marceau, Brit. J. Pharm., 103, 1057-1066, 1991). In normal rabbits, no changes in systemic arterial blood pressure can be detected in response to challenges with BK1 receptor agonists. There is, however, a predictable and reproducible response to BK2 agonists constituatively present. After stimulation with LPS BK1 receptor activity will develop over time such that profound responses to doses of BK1 agonists that were previously inconsequential in nature are observed after a 3-4 hour period. Responses to BK2 agonists are unchanged in these animals. At this point, one can test directly the ability to block both BK1 and BK2 mediated reductions in systemic blood pressure simultaneously with a heterodimeric antagonist.
(§2) FIGS. 8a, b and c comprise actual blood pressure traces from a series of experiments designed to illustrate the ability of a representative heterodimer (CP-0364) to block both BK1 - and BK2 - mediated hypotensive responses simultaneously.
(§3) The expected antagonist activity is based on the data summarized in Tables K and L. The in vivo experimental data reported are qualitative measurements of antagonist activity at three different doses (1, 3 and 10 μg kg^-1 min^-1) in rabbits given a sub-lethal dose of LPS (10 μg), 20 hours before initiation of the experiment.

[3] = biological target: T3, BK1 receptor (Oryctolagus cuniculus, UniProt P48748); experiment: blood pressure response to BK1 agonist in LPS-pretreated rabbits; type: in vivo, rabbit; set-up: from tissue; host or cells: whole animal (rabbit, LPS-pretreated), blood pressure response; key to observed antagonist activity BK1, 1 / observed antagonist activity BK1, 3 / observed antagonist activity BK1, 10: +: complete blockade of the blood pressure response to the appropriate agonist; ±: partial blockade; -: no observable effect at the dose indicated; conditions: for observed antagonist activity BK1, 1: 1 μg kg^-1 min^-1; for observed antagonist activity BK1, 1 / observed antagonist activity BK1, 3 / observed antagonist activity BK1, 10: rabbits given LPS (10 μg) 20 hours before; for observed antagonist activity BK1, 3: 3 μg kg^-1 min^-1; for observed antagonist activity BK1, 10: 10 μg kg^-1 min^-1
T3 sequence (P48748 1-352): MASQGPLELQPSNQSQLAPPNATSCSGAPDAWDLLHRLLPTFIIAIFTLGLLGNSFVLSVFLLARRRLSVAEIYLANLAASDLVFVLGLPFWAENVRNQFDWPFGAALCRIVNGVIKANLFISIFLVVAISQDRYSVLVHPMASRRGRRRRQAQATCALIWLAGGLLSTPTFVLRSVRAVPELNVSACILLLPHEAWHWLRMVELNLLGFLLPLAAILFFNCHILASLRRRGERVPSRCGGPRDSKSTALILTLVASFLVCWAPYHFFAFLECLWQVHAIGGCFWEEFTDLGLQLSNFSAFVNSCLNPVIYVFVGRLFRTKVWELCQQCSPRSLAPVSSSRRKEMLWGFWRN
Excerpt: as §1, §2, §3

[4] = rabbits after endotoxin pre-treatment, agonist i.v. bolus

SMILES	observed antagonist activity BK2, 1 [2]	observed antagonist activity BK2, 3 [2]	observed antagonist activity BK2, 10 [2]	observed antagonist activity BK1, 1 [3]	observed antagonist activity BK1, 3 [3]	observed antagonist activity BK1, 10 [3]	further results
CC(C)C[C@H](NC(=O)[C@@H](Cc1ccccc1)NC(=O)[C@H](CO)NC(=O)[C@H](CSC1CC(=O)N(CCCCCCN2C(=O)CC(SC[C@H](NC(=O)CNC(=O)[C@@H]3C[C@@H](O)CN3C(=O)[C@@H]3CCCN3C(=O)[C@H](CCCNC(=N)N)NC(=O)[C@H](N)CCCNC(=N)N)C(=O)N[C@@H](CO)C(=O)N[C@H](Cc3ccccc3)C(=O)N[C@@H](CC(C)C)C(=O)N[C@@H](CCCNC(=N)N)C(=O)O)C2=O)C1=O)NC(=O)CNC(=O)[C@@H]1C[C@@H](O)CN1C(=O)[C@@H]1CCCN1C(=O)[C@H](CCCNC(=N)N)NC(=O)[C@H](N)CCCNC(=N)N)C(=O)N[C@@H](CCCNC(=N)N)C(=O)O (some centres unmarked) [CP-0156] (HELM PEPTIDE1{[dR].R.P.[Hyp].G.C.S.[dF].L.R}|PEPTIDE2{[dR].R.P.[Hyp].G.C.S.[dF].L.R}|CHEM1{[O=C1CC([*:1])C(=O)N1CCCCCCN1C(=O)CC([*:2])C1=O]}$PEPTIDE1,CHEM1,6:R3-1:R1|PEPTIDE2,CHEM1,6:R3-1:R2$$$V2.0)							% REC rat uterus ([1]; percentage recovery after washing): 75%
CC(C)C[C@H](NC(=O)[C@@H](Cc1ccccc1)NC(=O)[C@H](CSC1CC(=O)N(CCN2C(=O)CC(SC[C@H](NC(=O)[C@H](Cc3ccccc3)NC(=O)CNC(=O)[C@@H]3C[C@@H](O)CN3C(=O)[C@@H]3CCCN3C(=O)[C@H](CCCNC(=N)N)NC(=O)[C@H](N)CCCNC(=N)N)C(=O)N[C@H](Cc3ccccc3)C(=O)N[C@@H](CC(C)C)C(=O)N[C@@H](CCCNC(=N)N)C(=O)O)C2=O)C1=O)NC(=O)[C@H](Cc1ccccc1)NC(=O)CNC(=O)[C@@H]1C[C@@H](O)CN1C(=O)[C@@H]1CCCN1C(=O)[C@H](CCCNC(=N)N)NC(=O)[C@H](N)CCCNC(=N)N)C(=O)N[C@@H](CCCNC(=N)N)C(=O)O (some centres unmarked) [CP-0162] (HELM PEPTIDE1{[dR].R.P.[Hyp].G.F.C.[dF].L.R}|PEPTIDE2{[dR].R.P.[Hyp].G.F.C.[dF].L.R}|CHEM1{[O=C1CC([*:1])C(=O)N1CCN1C(=O)CC([*:2])C1=O]}$PEPTIDE1,CHEM1,7:R3-1:R1|PEPTIDE2,CHEM1,7:R3-1:R2$$$V2.0)							Kb ([1]; against BK, read-out: pA2 rat uterus (BK2) (converted)): 3.98 nM
CC(C)C[C@H](NC(=O)[C@@H](Cc1ccccc1)NC(=O)[C@H](CSC1CC(=O)N(CCCCN2C(=O)CC(SC[C@H](NC(=O)[C@H](Cc3ccccc3)NC(=O)CNC(=O)[C@@H]3C[C@@H](O)CN3C(=O)[C@@H]3CCCN3C(=O)[C@H](CCCNC(=N)N)NC(=O)[C@H](N)CCCNC(=N)N)C(=O)N[C@H](Cc3ccccc3)C(=O)N[C@@H](CC(C)C)C(=O)N[C@@H](CCCNC(=N)N)C(=O)O)C2=O)C1=O)NC(=O)[C@H](Cc1ccccc1)NC(=O)CNC(=O)[C@@H]1C[C@@H](O)CN1C(=O)[C@@H]1CCCN1C(=O)[C@H](CCCNC(=N)N)NC(=O)[C@H](N)CCCNC(=N)N)C(=O)N[C@@H](CCCNC(=N)N)C(=O)O (some centres unmarked) [CP-0209] (HELM PEPTIDE1{[dR].R.P.[Hyp].G.F.C.[dF].L.R}|PEPTIDE2{[dR].R.P.[Hyp].G.F.C.[dF].L.R}|CHEM1{[O=C1CC([*:1])C(=O)N1CCCCN1C(=O)CC([*:2])C1=O]}$PEPTIDE1,CHEM1,7:R3-1:R1|PEPTIDE2,CHEM1,7:R3-1:R2$$$V2.0)							pA2 rat uterus (BK2) ([1]; against BK): 8.2 ± 0.2
CC(C)C[C@H](NC(=O)[C@@H]1CCCN1C(=O)[C@H](CO)NC(=O)[C@H](Cc1ccccc1)NC(=O)CNC(=O)[C@@H]1CCCN1C(=O)[C@@H]1CCCN1C(=O)[C@H](CCCNC(=N)N)NC(=O)[C@@H](N)CCCCN)C(=O)O [CP-0298, des ARG^9-[LYS^0, LEU^8]-BK, reference compound]	-	-	-	+	+	+	
CC(C)C[C@H](NC(=O)[C@@H]1CCCN1C(=O)[C@H](CO)NC(=O)[C@H](Cc1ccccc1)NC(=O)CNC(=O)[C@@H]1C[C@@H](O)CN1C(=O)[C@@H]1CCCN1C(=O)[C@H](CSC1CC(=O)N(CCCCCCN2C(=O)CC(SC[C@H](NC(=O)[C@H](Cc3ccccc3)NC(=O)CNC(=O)[C@@H]3C[C@@H](O)CN3C(=O)[C@@H]3CCCN3C(=O)[C@H](CCCNC(=N)N)NC(=O)[C@H](N)CCCNC(=N)N)C(=O)N[C@H](Cc3ccccc3)C(=O)N[C@@H](CC(C)C)C(=O)N[C@@H](CCCNC(=N)N)C(=O)O)C2=O)C1=O)NC(=O)[C@H](N)CCCNC(=N)N)C(=O)O (some centres unmarked) [CP-0364] (HELM PEPTIDE1{[dR].R.P.[Hyp].G.F.C.[dF].L.R}|PEPTIDE2{[dR].C.P.[Hyp].G.F.S.P.L}|CHEM1{[O=C1CC([*:1])C(=O)N1CCCCCCN1C(=O)CC([*:2])C1=O]}$PEPTIDE1,CHEM1,7:R3-1:R1|PEPTIDE2,CHEM1,2:R3-1:R2$$$V2.0; N-terminus and C-terminus assumed)	+	+	+	+	+	+	block of BK2-mediated hypotensive response (FIG. 8) [2, 4]: capable of blocking the response profile to both agonists simultaneously; block of BK1-mediated hypotensive response (FIG. 8) [3, 4]: capable of blocking the response profile to both agonists simultaneously
N=C(N)NCCC[C@@H](N)C(=O)N[C@@H](CCCNC(=N)N)C(=O)N1CCC[C@H]1C(=O)N1C[C@H](O)C[C@H]1C(=O)NCC(=O)N[C@@H](Cc1ccccc1)C(=O)N[C@@H](CSC1CC(=O)N(CCCCCCN2C(=O)CC(SC[C@H](NC(=O)[C@H](N)CCCNC(=N)N)C(=O)N3CCC[C@H]3C(=O)N3C[C@H](O)C[C@H]3C(=O)NCC(=O)N[C@@H](Cc3ccccc3)C(=O)N[C@@H](CO)C(=O)N3Cc4ccccc4C[C@@H]3C(=O)N3[C@H](C(=O)O)C[C@@H]4CCCC[C@@H]43)C2=O)C1=O)C(=O)N1Cc2ccccc2C[C@@H]1C(=O)N1[C@H](C(=O)N[C@@H](CCCNC(=N)N)C(=O)O)C[C@@H]2CCCC[C@@H]21 (some centres unmarked) [CP-0365] (I: H-[dR]RP[Hyp]GFC[dTic][Oic]R-OH / II: H-[dR]CP[Hyp]GFS[dTic][Oic]-OH; linker I:7-II:2 via BMH; N-terminus and C-terminus assumed)	-	+	+	-	+	+	
